Source: PMC3950666, “Cellular trafficking determines the exon skipping activity of Pip6a-PMO in mdx skeletal and cardiac muscle cells” (Nucleic Acids Research, 2013)
Read-outs that look alike come from different tables or passages of the source.

Key:
[1] = 1 µM concentration; cited from earlier work
Text: A full comparison of EC50 values is difficult since ...

H2k mdx myotubes = experiment: Cellular uptake by fluorescence spectroscopy in H2k mdx myotubes
Procedure: After incubation with 3′-fluorescein labelled Pip6a-PMO or 3′-fluorescein-labelled PMO, cells were washed twice with PBS and lysed with 300 µl GLB buffer (Promega). In all, 100 µl of the lysate were transferred into black non-binding 96-well plates (Greiner) and fluorescence was measured on a Tecan plate reader (Ex 485 nm/Em 520 nm). Protein concentration was measured by a BCA kit (Pierce) on a Tecan plate reader (Abs 560 nm).

[2] = tested on: dystrophin pre-mRNA exon 23 in primary wild-type cardiomyocytes; experiment: Exon 23 skipping by nested RT-PCR in primary wild-type cardiomyocytes; assay type: cell-based, mouse; conditions: for %ES (percentage of exon skipping): 1000 nM, WT (healthy) cardiomyocytes, serum-containing medium, 24 h post-treatment, n ≥ 4
[3] = tested on: dystrophin pre-mRNA exon 23 in primary mdx cardiomyocytes; experiment: Exon 23 skipping by nested RT-PCR in primary mdx cardiomyocytes; assay type: cell-based, mouse
[4] = tested on: dystrophin pre-mRNA exon 23 in H2k mdx myotubes; experiment: Exon 23 skipping by nested RT-PCR in differentiated H2k mdx myotubes; assay type: cell-based, mouse
[5] = tested on: dystrophin pre-mRNA exon 23 in C2C12 myotubes; experiment: Exon 23 skipping by nested RT-PCR in differentiated C2C12 myotubes; assay type: cell-based, mouse; conditions: serum-containing transfection media, 24 h post-treatment
Procedure: Figure S3. Exon skipping efficiency of Pip6a-PMO in C2C12 skeletal muscle cells. C2C12 cells were differentiated for 6 days and thereafter incubated with Pip6a-PMO under serum condition (+S). Transfections were carried out for 4 h under serum conditions and cells were incubated further with serum-containing medium for 20 h. Exon skipping efficiency was evaluated on pre-mRNA levels by nested RT-PCR. Products were separated by gel electrophoresis and exon skipping values were derived from densitometric analysis. (Percentage of exon skipping (%ES) calculated as described in Figure S1 with n≥4).

[6] = tested on: dystrophin pre-mRNA exon 23 in H2k mdx myoblasts; experiment: Exon 23 skipping by nested RT-PCR in undifferentiated H2k mdx myoblasts; assay type: cell-based, mouse

## (RXRRBR)2 [B-PMO, PMO covalently linked to the (RXRRBR)2 B-peptide, previously described PPMO]
[1]
  reported exon-skipping level: ~45%

## Ac-RXRRBRRXRYQFLIRXRBRXRB-OH [Pip6a-PMO, Pip6a peptide conjugated by amide linkage to the 5′-amino linker of the PMO; carries 3′-fluorescein label unless mentioned as unlabelled]
H2k mdx myotubes; 250 nM, 4 h, EIPA 10 µM, 30 min pre-treatment, n ≥ 4
  effect of EIPA on cellular delivery and exon-skipping activity: only negligible effects
H2k mdx myotubes; 250 nM, 4 h, chlorpromazine 30 µM, 30 min pre-treatment, n ≥ 4
  effect of CPZ on cellular delivery and exon-skipping activity: only negligible effects
H2k mdx myotubes; 250 nM, 4 h, nystatin 50 µM, 30 min pre-treatment, n ≥ 4
  effect of nystatin on uptake and exon 23-skipping efficiency: pronounced effect
H2k mdx myotubes; H2k mdx cells, 4 h incubation, fluorescence spectroscopy
  increase of uptake in myotubes versus myoblasts: 2 fold
[2]
  %ES (percentage of exon skipping): 44%
[2]; 48 h post-treatment compared with 24 h, primary wild type cardiomyocytes, Supplementary Figure S7
  change of exon skipping with 48 h incubation: did not increase significantly
[3]; primary cardiomyocytes from neonatal mdx and wild-type mice, not distinguished, approximate
  EC50: ~1000 nM
[4]; 1 µM, statement of the discussion
  exon skipping: complete exon skipping
[4]; 48 h post-treatment (4 h transfection, then 44 h serum-containing medium), serum condition (+S), read-out: EC50 at 48 h (exon 23 skipping)
  EC50: 20 nM
[4]; serum-free medium (-S), 24 h post-treatment, Prism 5.0 after normalization of the Δ23 skipping, read-out: EC50 (concentration required to achieve 50% exon 23 skipping)
  EC50: 41 nM
[4]; serum-supplemented transfection medium (+S), 24 h post-treatment, Prism 5.0 after normalization, read-out: EC50 (exon 23 skipping)
  EC50: 30 nM
[5]
  EC50: 107 nM
[6]; 183 nM in myoblasts compared with myotubes
  EC50 in H2k mdx myoblasts relative to H2k mdx myotubes: ~6 times
[6]; undifferentiated H2k mdx myoblasts, data not shown
  EC50: 183 nM

## PMO: phosphorodiamidate morpholino oligomer 5′-GGCCAAACCTCGGCTTACCTGAAAT-3′ with 5′-amino linker and 3′-fluorescein label, Gene Tools (morpholino, 5'-amino linker, 3'-fluorescein, chemistry not fully specified) [reference compound]
H2k mdx myotubes; 1000 nM, 4 h incubation, cell lysate fluorescence Ex 485 nm/Em 520 nm
  cellular uptake (fluorescence): no uptake
[2]; listed as naked PMO
  %ES (percentage of exon skipping): failed to induce any exon skipping
[3]; 1000 nM, mdx cardiomyocytes, serum-containing medium, 24 h post-treatment, n ≥ 4, listed as naked PMO
  %ES (percentage of exon skipping): failed to induce any exon skipping
